Results taken from the NIST ThermoML archive (doi:10.1016/j.tca.2010.10.002).
± gives the expanded uncertainty stated by the source. Each block holds one compound with its values, some of them ahead of it.

Conditions: Liquid, DSC

SMILES: CCCCC/C=C\C/C=C\CCCCCCCC(=O)OCC [ethyl linoleate]
vapor or sublimation pressure (537.69 K): 9.333 ± 0.93 kPa

SMILES: CCCCCCCCCCCCCCCC(=O)OCC [ethyl hexadecanoate]
vapor or sublimation pressure (502.27 K): 5.333 ± 0.53 kPa
vapor or sublimation pressure (515.13 K): 9.333 ± 0.93 kPa

SMILES: CCCCCCCC/C=C\CCCCCCCC(=O)OCC [ethyl (Z)-9-octadeceneoate]
vapor or sublimation pressure (514.61 K): 5.333 ± 0.53 kPa
vapor or sublimation pressure (536.83 K): 9.333 ± 0.94 kPa

Further lines, results first:

vapor or sublimation pressure (486.57 K): 4 ± 0.4 kPa
SMILES: CCCCCCCCCCCCCCCC(=O)OC [methyl hexadecanoate]

vapor or sublimation pressure (459.62 K): 4 ± 0.4 kPa
SMILES: CCCCCCCCCCCCCC(=O)OC [methyl tetradecanoate]

vapor or sublimation pressure (520.56 K): 5.333 ± 0.53 kPa
SMILES: CCCCCCCCCCCCCCCCCC(=O)OCC [ethyl octadecanoate]
